From US4447608A, “Anti-cancer quinazoline derivatives” (priority 1979, dated 1984)
Read-outs that look alike come from different tables or passages of the source.

Tests used:
[1] = target: T1, THYMIDYLATE SYNTHETASE (TS) (Mus musculus, UniProt P07607); assay: Inhibition of thymidylate synthetase (TS), partially purified L1210 cytosol; type: biochemical; conditions: Table 1, inhibitor concentration reducing TS reaction rate by 50%, read-out: THYMIDYLATE SYNTHETASE I50
T1 construct: The cytosol of log phase L1210 cells harvested from animals was partially purified for TS I50 and Ki determinations; endogenous in cells; host or cells: L1210 cells harvested from animals (cytosol, partially purified)
Description: (§1) The cytosol of log phase L1210 cells harvested from animals was partially purified for TS I50 and Ki determinations to remove from the preparation a phosphatase which degrades dUMP to deoxyuridine. (The I50 was defined as the inhibitor concentration necessary to reduce the reaction rate of TS by 50%). DHFR was purified by affinity chromatography and Ki determinations performed.

[2] = target: DIHYDROFOLATE REDUCTASE (DHFR); assay: Inhibition of dihydrofolate reductase (DHFR) purified by affinity chromatography; type: biochemical; conditions: Table 1
Description: as §1

[3] = system: L1210 cells; assay: Growth inhibition of L1210 cells in suspension culture, 48 h count; type: cell-based; conditions: Mus musculus
Method: (§2) Cells were diluted to 10^5 /ml and additions (diluted in medium and sterilised in Millipore filtration) made prior to starting each incubation. Cell counts were performed after 24 and 48 hours using an improved Neubauer haemocytometer.

[4] = system: L1210:R71 cells; assay: Growth inhibition of methotrexate-resistant L1210:R71 cells in suspension culture, 48 h count; type: cell-based, mouse; conditions: Table 2; for IC50: Mus musculus, MTX-resistant, 48 hour count reduced to 50% of control, read-out: ID50 L1210:R71
Method: The compounds of Example 2 were evaluated in vitro as inhibitors as TS and cell growth and in vivo against the L1210 tumour. Since methotrexate (MTX) resistance is an important problem in cancer therapy, the compounds of the present invention were also investigated with this in mind.
as §2, with “L1210 and L1210:R71 cells were grown in continuous suspension culture in RPMI 1640 medium containing 10% horse serum (Flow Laboratories, Irvine, Scotland; UK). Cells” for “Cells”

[5] = target: T2, TS (Mus musculus, UniProt P07607); assay: Inhibition of TS purified >2,000 fold from L1210 cells by affinity chromatography; type: biochemical; conditions: for Relative potency ([drawing 17], I50 relative to CB 3717): relative to CB 3717 control, higher = weaker; for IC50: second results table, TS purified >2,000 fold, read-out: TS I50
T2 construct: endogenous in cells

[6] = system: L1210 cells; assay: Reversal of toxicity to L1210 cells in culture by thymidine; type: cell-based, mouse; conditions: second results table; L1210
Method: as §2, with “L1210 and L1210:R71 cells were grown in continuous suspension culture in RPMI 1640 medium containing 10% horse serum (Flow Laboratories, Irvine, Scotland; UK). Cells” for “Cells”

[7] = L1210, Table 2, 48 hour count reduced to 50% of control, read-out: ID50 L1210
[8] = L1210, 48 h, second results table, read-out: ID50 L1210 (Tissue culture)

T2 sequence (P07607 whole entry): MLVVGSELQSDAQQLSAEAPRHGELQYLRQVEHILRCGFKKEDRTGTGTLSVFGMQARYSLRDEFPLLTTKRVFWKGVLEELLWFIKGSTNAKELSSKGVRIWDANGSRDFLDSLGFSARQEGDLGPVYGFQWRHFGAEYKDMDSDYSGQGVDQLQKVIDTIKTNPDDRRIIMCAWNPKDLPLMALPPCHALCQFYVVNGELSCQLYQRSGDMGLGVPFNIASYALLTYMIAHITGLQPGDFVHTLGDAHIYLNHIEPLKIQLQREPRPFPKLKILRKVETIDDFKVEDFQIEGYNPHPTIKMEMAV
T1 sequence (P07607 whole entry): as above

Structure (SMILES)	IC50 [3, 8] [µM]	Relative potency ([drawing 17], I50 relative to CB 3717) [5]	IC50 [5] [µM]	also measured
C=CCN(Cc1ccc2nc(N)nc(O)c2c1)c1ccc(C(=O)N[C@@H](CCC(=O)O)C(=O)O)cc1 [CB 3716, N-(4-(N-((2-amino-4-hydroxy-6-quinazolinyl)methyl)prop-2-enylamino)benzoyl)-L-glutamic acid]				IC50 [1]: 0.069 µM; Ki [2]: 0.027 µM; IC50 [3, 7]: 8.8 µM; IC50 [4]: 100 µM; CROSS RESISTANCE (ID50 L1210:R71/ID50 L1210) [4]: 11
C#CCN(Cc1ccc2nc(N)nc(O)c2c1)c1ccc(C(=O)N[C@@H](CCC(=O)OCC)C(=O)OCC)cc1 [CB 3721, diethyl N-(4-(N-((2-amino-4-hydroxy-6-quinazolinyl)methyl)prop-2-ynylamino)benzoyl)-L-glutamate]	52	> 62	> 3	
N#CCN(Cc1ccc2nc(N)[nH]c(=O)c2c1)c1ccc(C(=O)N[C@@H](CCC(=O)O)C(=O)O)cc1 [CB 3726]	5.4	15.6	0.094	
Nc1nc2ccc(CN(CC(=O)O)c3ccc(C(=O)N[C@@H](CCC(=O)O)C(=O)O)cc3)cc2c(=O)[nH]1 [CB 3728]	27	100	1.4	Reversal by thymidine (in culture) [6]: yes
Nc1nc(O)c2cc(CN(CCCO)c3ccc(C(=O)N[C@@H](CCC(=O)O)C(=O)O)cc3)ccc2n1 [CB 3729, N-(4-(N-((2-amino-4-hydroxy-6-quinazolinyl)methyl)-3-hydroxypropylamino)-benzoyl)-L-glutamic acid]	54	8.6	0.12	
Nc1nc(O)c2cc(CN(CCF)c3ccc(C(=O)N[C@@H](CCC(=O)O)C(=O)O)cc3)ccc2n1 [CB 3731, N-(4-(N-((2-amino-4-hydroxy-6-quinazolinyl)methyl)2-fluoroethylamino)benzoyl)-L-glutamic acid]	16	6.8	0.095	
Nc1nc(O)c2cc(CN(CC(=O)c3ccccc3)c3ccc(C(=O)N[C@@H](CCC(=O)O)C(=O)O)cc3)ccc2n1 [CB 3733, N-(4-(N-((2-amino-4-hydroxy-6-quinazolinyl)methyl)phenacylamino)benzoyl)-L-glutamic acid]	100	40	1.64	
NC(=O)CN(Cc1ccc2nc(N)[nH]c(=O)c2c1)c1ccc(C(=O)N[C@@H](CCC(=O)O)C(=O)O)cc1 [CB 3734]	87	> 62.5	> 3	Reversal by thymidine (in culture) [6]: yes
Nc1nc2ccc(CN(CCBr)c3ccc(C(=O)N[C@@H](CCC(=O)O)C(=O)O)cc3)cc2c(=O)[nH]1 [CB 3735]	52	23	1.1	
Nc1nc2ccc(CN(CC3CO3)c3ccc(C(=O)N[C@@H](CCC(=O)O)C(=O)O)cc3)cc2c(=O)[nH]1 (stereo partly drawn) [CB 3736]	> 300	7.6	0.31	
C#CCN(Cc1ccc2nc(N)[nH]c(=O)c2c1)c1ccc(C(=O)N[C@@H](CC(=O)O)C(=O)O)cc1 [CB 3737]	> 100	1.6	0.066	
C#CCN(Cc1ccc2nc(N)[nH]c(=O)c2c1)c1ccc(C(=O)N[C@@H](CCC(=O)O)C(=O)O)c(C)c1 [CB 3738]	24	1.1	0.047	
C#CCN(Cc1ccc2nc(N)[nH]c(=O)c2c1)c1ccc(C(=O)N[C@@H](CCC(=O)O)C(=O)O)c(Cl)c1 [CB 3739]	17			
Nc1nc(O)c2cc(CN(Cc3c[nH]c(=O)[nH]c3=O)c3ccc(C(=O)N[C@@H](CCC(=O)O)C(=O)O)cc3)ccc2n1 [CB 3743, N-(4-(N-(2-amino-4-hydroxy-6-quinazolinyl)methyl-N-(5-uracilyl)methyl-amino)benzoyl)-L-glutamic acid]	4.7	> 22	> 1	Reversal by thymidine (in culture) [6]: yes
CCOC(=O)CC[C@H](NC(=O)c1ccc(N(CC(=O)c2ccccc2)Cc2ccc3nc(N)nc(O)c3c2)cc1)C(=O)OCC [CB 3744, diethyl N-(4-(N-((2-amino-4-hydroxy-6-quinazolinyl)methyl)phenacylamino)benzoyl)-L-glutamate]	> 100			
CCOC(=O)CC[C@H](NC(=O)c1ccc(N(CC(=O)OCC)Cc2ccc3nc(N)[nH]c(=O)c3c2)cc1)C(=O)OCC [CB 3745]	> 100			
CCOC(=O)CC[C@H](NC(=O)c1ccc(N(CCBr)Cc2ccc3nc(N)[nH]c(=O)c3c2)cc1)C(=O)OCC [CB 3746]	> 100			
CCOC(=O)CC[C@H](NC(=O)c1ccc(N(Cc2ccc3nc(N)[nH]c(=O)c3c2)CC(O)CBr)cc1)C(=O)OCC (stereo partly drawn) [CB 3747]	> 100			
C#CCN(Cc1ccc2nc(N)[nH]c(=O)c2c1)c1ccc(C(=O)N[C@@H](CC(=O)OCC)C(=O)OCC)cc1 [CB 3748]	100			
C#CCN(Cc1ccc2nc(N)[nH]c(=O)c2c1)c1ccc(C(=O)N[C@@H](CCC(=O)OCC)C(=O)OCC)c(C)c1 [CB 3749]	100			
C#CCN(Cc1ccc2nc(N)[nH]c(=O)c2c1)c1ccc(C(=O)N[C@@H](CCC(=O)OCC)C(=O)OCC)c(Cl)c1 [CB 3750]	18			
CCCN(Cc1ccc2nc(N)[nH]c(=O)c2c1)c1ccc(C(=O)N[C@@H](CCC(=O)O)C(=O)O)cc1 [Comparison, reference compound]				IC50 [1]: 0.17 µM; Ki [2]: 0.02 µM; IC50 [3, 7]: 33 µM; IC50 [4]: 315 µM; CROSS RESISTANCE (ID50 L1210:R71/ID50 L1210) [4]: 10
